The source made the active and inactive calls. The rule behind the calls is not given here.
Tests used:
[1] = molecular target: T1, Fatty-acid amide hydrolase 1 (Rattus norvegicus, UniProt P97612); experiment: (§1) Inhibition of Sprague-Dawley rat brain microsome FAAH assessed as reduction in 4-pyren-1-ylbutanoic acid release after 60 mins by reverse phase HPLC-based fluorescence method
T1 sequence (P97612 whole entry): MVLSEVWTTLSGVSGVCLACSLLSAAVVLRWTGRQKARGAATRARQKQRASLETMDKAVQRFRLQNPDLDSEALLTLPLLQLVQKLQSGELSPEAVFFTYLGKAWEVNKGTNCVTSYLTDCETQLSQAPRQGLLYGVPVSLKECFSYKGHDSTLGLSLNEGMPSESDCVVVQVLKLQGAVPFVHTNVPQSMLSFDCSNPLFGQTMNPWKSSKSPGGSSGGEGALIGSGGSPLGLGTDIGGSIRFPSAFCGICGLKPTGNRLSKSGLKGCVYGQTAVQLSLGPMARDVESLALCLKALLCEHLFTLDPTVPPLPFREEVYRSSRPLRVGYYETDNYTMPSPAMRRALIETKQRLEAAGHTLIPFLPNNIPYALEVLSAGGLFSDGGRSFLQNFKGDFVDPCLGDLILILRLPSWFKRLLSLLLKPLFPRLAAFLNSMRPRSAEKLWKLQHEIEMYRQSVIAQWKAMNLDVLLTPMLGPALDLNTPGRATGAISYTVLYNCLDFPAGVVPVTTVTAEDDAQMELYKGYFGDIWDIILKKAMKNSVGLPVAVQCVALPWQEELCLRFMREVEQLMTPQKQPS

[2] = molecular target: T2, Fatty-acid amide hydrolase 1 (Rattus norvegicus) (UniProt P97612); experiment: Inhibition of Sprague-Dawley rat brain FAAH assessed as residual activity at 10 uM after 60 mins by reverse phase HPLC-based fluorescence method
T2 sequence (whole entry): T1 sequence (P97612 whole entry)

[3] = molecular target: T2, Fatty-acid amide hydrolase 1 (Rattus norvegicus); experiment: as §1
[4] = molecular target: Acyl-protein thioesterase 2 (Homo sapiens) (UniProt O95372); experiment: Inhibition of APT2 at 50 uM
Acyl-protein thioesterase 2 (Homo sapiens), sequence (O95372 whole entry): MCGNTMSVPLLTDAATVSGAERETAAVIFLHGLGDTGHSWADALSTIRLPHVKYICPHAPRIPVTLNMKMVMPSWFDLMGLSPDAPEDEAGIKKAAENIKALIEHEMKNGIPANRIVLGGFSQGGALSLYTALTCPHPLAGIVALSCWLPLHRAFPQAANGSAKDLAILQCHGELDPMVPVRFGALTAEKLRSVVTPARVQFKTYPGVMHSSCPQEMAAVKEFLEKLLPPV

[5] = molecular target: Acyl-protein thioesterase 1 (Homo sapiens) (UniProt O75608); experiment: Inhibition of APT1 at 50 uM
Acyl-protein thioesterase 1 (Homo sapiens), sequence (O75608 whole entry): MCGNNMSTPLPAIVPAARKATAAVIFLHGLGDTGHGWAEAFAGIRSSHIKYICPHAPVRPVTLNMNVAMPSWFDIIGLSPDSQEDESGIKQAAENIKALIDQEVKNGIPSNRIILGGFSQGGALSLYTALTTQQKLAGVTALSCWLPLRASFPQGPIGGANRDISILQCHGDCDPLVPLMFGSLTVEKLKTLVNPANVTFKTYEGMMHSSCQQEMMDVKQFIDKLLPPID

[6] = Inhibition of cPLA2alpha at 1 uM

SMILES	Activity [2]	inhibition [3]	other results
CCCCCCCCCCCC(=O)c1ncc(CCS(=O)(=O)CCCN(C)C)o1	3%		IC50 [1]: 370 nM
CCCCCCCC(=O)c1ncc(CCCCCCSCCCN(C)C)o1	78%		
CCCCCCCC(=O)c1ncc(CCCS(=O)(=O)CCC[N+](C)(C)C)o1	53%		
CCCCCCCCCCCC(=O)c1ncc(CCCCCSCCCN(C)C)o1	64%	inactive	
CCCCCCCC(=O)c1ncc(CCCCCCS(=O)(=O)CCCN(C)C)o1	62%		
CCCCCCCC(=O)c1ncc(CCCS(=O)(=O)CCCN(C)C)o1	22%		IC50 [1]: 2400 nM
CCCCCCCCCCCC(=O)c1ncc(CCCS(=O)(=O)CCC[N+](C)(C)C)o1	13%		IC50 [1]: 1900 nM
CCCCCCCCCCCC(=O)c1ncc(CCCSCCCN(C)C)o1	40%	inactive	
CCCCCCCC(=O)c1ncc(CCCCS(=O)(=O)CCC[N+](C)(C)C)o1	83%		
CCCCCCCC(=O)c1ncc(CCCCCCSCCC[N+](C)(C)C)o1	82%		
CCCCCCCC(=O)c1ncc(CCSCCCN(C)C)o1	34%		
CCCCCCCC(=O)c1ncc(CCCCSCCC[N+](C)(C)C)o1	68%		
CCCCCCCCCCCC(=O)c1ncc(CCCCCS(=O)(=O)CCCN(C)C)o1	53%	inactive	
CCCCCCCCCCCC(=O)c1ncc(CCSCCCN(C)C)o1	27%	inactive	
CCCCCCCCCCCC(=O)c1ncc(CCS(=O)(=O)CCC[N+](C)(C)C)o1	11%		IC50 [1]: 1400 nM
CCCCCCCC(=O)c1ncc(CCCCCSCCCN(C)C)o1	78%		
CCCCCCCCCCCC(=O)c1ncc(CCCCS(=O)(=O)CCC[N+](C)(C)C)o1	49%	inactive	
CCCCCCCC(=O)c1ncc(CCCCS(=O)(=O)CCCN(C)C)o1	59%		
CCCCCCCCCCCC(=O)c1ncc(CCCCS(=O)(=O)CCCN(C)C)o1	32%	inactive	
CCCCCCCCCCCC(=O)c1ncc(CCCCCS(=O)(=O)CCC[N+](C)(C)C)o1	57%	inactive	
O=C(CCCCCc1ccccc1)c1nc2ncccc2o1			IC50 [1]: 2.9 nM
CCCCCCCC(=O)c1ncc(CCCSCCCN(C)C)o1	64%		
CCCCCCCCCCCC(=O)c1ncc(CCCCCCS(=O)(=O)CCCN(C)C)o1	51%	inactive	
Cc1nc(-c2ccccc2)c(-c2ccccc2)n1CCCCCCNC(=O)Oc1ccccc1			IC50 [1]: 340 nM
CCCCCCCC(=O)c1ncc(CCCCCS(=O)(=O)CCC[N+](C)(C)C)o1	70%		
CCCCCCCCCCCC(=O)c1ncc(CCCCCCS(=O)(=O)CCC[N+](C)(C)C)o1	31%	inactive	

Now from value to molecule, other results behind:

Activity [2]	inhibition [3]	SMILES	other results
78%	inactive	CCCCCCCCCCCC(=O)c1ncc(CCSCCC[N+](C)(C)C)o1	
2%		CCCCCCCCCCCC(=O)c1ncc(CCCS(=O)(=O)CCCN(C)C)o1	inhibition [4]: inactive; IC50 [1]: 290 nM; inhibition [5]: inactive; inhibition [6]: inactive
71%	inactive	CCCCCCCCCCCC(=O)c1ncc(CCCCCCSCCC[N+](C)(C)C)o1	
48%		CCCCCCCC(=O)c1ncc(CCCCSCCCN(C)C)o1	
73%		CCCCCCCC(=O)c1ncc(CCCCCS(=O)(=O)CCCN(C)C)o1	
61%		CCCCCCCC(=O)c1ncc(CCS(=O)(=O)CCC[N+](C)(C)C)o1	
78%	inactive	CCCCCCCCCCCC(=O)c1ncc(CCCCSCCC[N+](C)(C)C)o1	
49%	inactive	CCCCCCCCCCCC(=O)c1ncc(CCCCSCCCN(C)C)o1	
23%		CCCCCCCC(=O)c1ncc(CCS(=O)(=O)CCCN(C)C)o1	IC50 [1]: 2000 nM
inactive		CCCCCCCC(=O)c1ncc(CCSCCC[N+](C)(C)C)o1	
72%	inactive	CCCCCCCCCCCC(=O)c1ncc(CCCCCCSCCCN(C)C)o1	
